From ChEMBL document CHEMBL1201862, “PubChem BioAssay data set” (2004)
The source made the active and inactive calls.

Legend:
[1] = molecular target: DNA dC->dU-editing enzyme APOBEC-3G (Homo sapiens, UniProt Q9HC16); experiment: Dose Response confirmation of small molecule APOBEC3G DNA Deaminase Inhibitors via a fluorescence-based single-stranded DNA deaminase assay. [Related pubchem assays (depositor defined):AID493012, AID493028]; type: functional
[2] = molecular target: Endoplasmic reticulum aminopeptidase 1 (Homo sapiens, UniProt Q9NZ08); experiment: inhibition of human ERAP1 enzyme activity – biochemical, cherry-pick, set 2, plate reader, dose response (AID 743314)
[3] = molecular target: DNA dC->dU-editing enzyme APOBEC-3A (Homo sapiens, UniProt P31941); experiment: A3A deaminase inhibition for selectivity – biochemical, dose response (AID 504722); type: functional
[4] = general mammalian cell viability loss – inhibitor set, cherry-pick, set 2, cytotoxicity control for miR-122 modulator project, dose response (AID 720697); type: functional, cell-based
[5] = molecular target: Induced myeloid leukemia cell differentiation protein Mcl-1 (Homo sapiens, UniProt Q07820); type: functional
[6] = viability loss in HepG2 hepatoma cells – cell-based, ATP luminescence, cherry-pick, activator set 2, cytotoxicity control, dose response (AID 1053143); type: functional
[7] = molecular target: Apoptotic protease-activating factor 1 (Homo sapiens, UniProt O14727); type: functional
[8] = molecular target: T1, Microphthalmia-associated transcription factor (Homo sapiens, UniProt O75030); experiment: reducers of TRPM1 reporter luminescence, concentration series – cell-based, SK-MEL-5, cherry-picked, set 3, MITF inhibitor project, dose response (AID 493073); type: functional;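 further: SK-MEL-5 melanoma cells with luciferase driven by the MITF target TRPM1 promoter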
T1 sequence (O75030 whole entry): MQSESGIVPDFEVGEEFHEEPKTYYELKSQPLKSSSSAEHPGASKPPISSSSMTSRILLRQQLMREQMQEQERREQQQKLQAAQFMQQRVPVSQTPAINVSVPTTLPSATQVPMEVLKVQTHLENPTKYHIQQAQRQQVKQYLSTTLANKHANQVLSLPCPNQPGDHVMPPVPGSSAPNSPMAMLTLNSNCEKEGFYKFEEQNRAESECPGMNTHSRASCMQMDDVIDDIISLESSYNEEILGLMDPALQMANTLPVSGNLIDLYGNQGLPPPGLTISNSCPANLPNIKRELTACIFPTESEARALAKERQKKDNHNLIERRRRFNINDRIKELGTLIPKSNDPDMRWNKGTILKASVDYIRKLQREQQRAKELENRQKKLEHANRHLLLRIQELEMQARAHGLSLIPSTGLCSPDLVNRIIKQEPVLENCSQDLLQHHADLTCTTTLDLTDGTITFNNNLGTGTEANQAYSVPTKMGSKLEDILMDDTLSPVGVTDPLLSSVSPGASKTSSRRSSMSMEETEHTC

[9] = molecular target: Matrix metalloproteinase-14 (Homo sapiens, UniProt P50281); experiment: Dose Response confirmation of uHTS hits for a small molecule inhibitors of MT1-MMP activation in a fluorescence assay set 1.; type: functional
[10] = molecular target: Alkaline phosphatase, placental type (Homo sapiens, UniProt P05187); experiment: human placental alkaline phosphatase inhibition – biochemical, luminescence, confirmation (AID 1512); type: functional
[11] = HGIII-sPLA2 enzyme inhibition potency – biochemical, QFRET, IC50, dose response (AID 743457);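 further: green fluorescence rise as the enzyme cleaves BODIPY PC-A2 in liposomes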
Vero = experiment: viability loss in Vero cells – cell-based, plate reader, cherry-pick samples, cytotoxicity control, dose response (AID 687020); type: functional; settings: Chlorocebus sabaeus
[12] = toxicity toward immortalized ovarian surface epithelium – cell-based, plate reader, dry powder samples, cytotoxicity control for PAX8 inhibitor project, dose response (AID 743045); type: functional
Paired box protein Pax-8 = Paired box protein Pax-8 (Homo sapiens, UniProt Q06710); experiment: PAX8 transcriptional activity inhibition in RMG-I – RMG-I cells, luciferase, cherry-pick, dose response (AID 687027); type: functional, cell-based;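 further: luciferase reporter driven by Pax8 target thyroperoxidase promoter measured by SteadyGlo luminescence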
[13] = OVCAR-3 cell viability loss – plate reader, dry powder samples, PAX8 inhibitor project, dose response (AID 743044); type: functional, cell-based
[14] = molecular target: Metabotropic glutamate receptor 3 (Rattus norvegicus, UniProt P31422); experiment: inhibitors of rat mGlu3 Galpha15 signaling – TREx293 cells, calcium flux, mGlu3 NAM project, dose response (AID 651840); type: functional
[15] = molecular target: Potassium channel subfamily K member 9 (Homo sapiens, UniProt Q9NPC2); experiment: KCNK9 flux blockade, concentration-response – cell-based, FluxOR thallium flux, selectivity assay for TASK1 inhibitor project, SAR follow-up (AID 652211); type: functional;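 further: potency is for inhibitors of the channel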
[16] = viability loss in HepG2 hepatoma cells – cell-based, cherry-picks, set 5, cytotoxicity control, dose response (AID 1053118); type: functional

Sequence of Endoplasmic reticulum aminopeptidase 1 (Q9NZ08 whole entry): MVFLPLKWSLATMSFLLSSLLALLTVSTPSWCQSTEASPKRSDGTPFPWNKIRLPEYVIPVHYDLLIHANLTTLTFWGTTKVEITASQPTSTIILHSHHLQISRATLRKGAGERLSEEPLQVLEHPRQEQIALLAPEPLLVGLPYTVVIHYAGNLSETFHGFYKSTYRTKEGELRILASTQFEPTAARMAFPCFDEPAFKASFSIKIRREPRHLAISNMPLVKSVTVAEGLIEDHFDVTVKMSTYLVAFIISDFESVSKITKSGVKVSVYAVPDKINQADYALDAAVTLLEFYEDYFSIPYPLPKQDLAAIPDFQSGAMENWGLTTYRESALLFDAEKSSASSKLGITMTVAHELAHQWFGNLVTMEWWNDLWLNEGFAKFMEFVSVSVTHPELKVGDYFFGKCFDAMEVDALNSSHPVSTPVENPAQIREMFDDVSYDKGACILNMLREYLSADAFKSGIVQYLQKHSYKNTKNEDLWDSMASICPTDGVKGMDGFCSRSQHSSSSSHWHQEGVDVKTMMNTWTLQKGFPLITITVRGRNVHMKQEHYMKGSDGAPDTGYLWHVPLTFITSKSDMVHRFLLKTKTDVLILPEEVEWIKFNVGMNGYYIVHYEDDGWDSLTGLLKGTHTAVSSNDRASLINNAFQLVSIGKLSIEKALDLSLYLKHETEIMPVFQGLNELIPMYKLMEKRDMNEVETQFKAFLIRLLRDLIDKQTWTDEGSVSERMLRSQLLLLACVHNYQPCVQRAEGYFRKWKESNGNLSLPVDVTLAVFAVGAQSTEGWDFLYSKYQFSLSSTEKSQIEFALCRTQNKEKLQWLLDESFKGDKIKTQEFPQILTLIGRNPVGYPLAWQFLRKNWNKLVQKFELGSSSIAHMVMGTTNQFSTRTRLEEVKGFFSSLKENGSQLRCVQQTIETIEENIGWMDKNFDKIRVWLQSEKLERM
Sequence of Apoptotic protease-activating factor 1 (O14727 whole entry): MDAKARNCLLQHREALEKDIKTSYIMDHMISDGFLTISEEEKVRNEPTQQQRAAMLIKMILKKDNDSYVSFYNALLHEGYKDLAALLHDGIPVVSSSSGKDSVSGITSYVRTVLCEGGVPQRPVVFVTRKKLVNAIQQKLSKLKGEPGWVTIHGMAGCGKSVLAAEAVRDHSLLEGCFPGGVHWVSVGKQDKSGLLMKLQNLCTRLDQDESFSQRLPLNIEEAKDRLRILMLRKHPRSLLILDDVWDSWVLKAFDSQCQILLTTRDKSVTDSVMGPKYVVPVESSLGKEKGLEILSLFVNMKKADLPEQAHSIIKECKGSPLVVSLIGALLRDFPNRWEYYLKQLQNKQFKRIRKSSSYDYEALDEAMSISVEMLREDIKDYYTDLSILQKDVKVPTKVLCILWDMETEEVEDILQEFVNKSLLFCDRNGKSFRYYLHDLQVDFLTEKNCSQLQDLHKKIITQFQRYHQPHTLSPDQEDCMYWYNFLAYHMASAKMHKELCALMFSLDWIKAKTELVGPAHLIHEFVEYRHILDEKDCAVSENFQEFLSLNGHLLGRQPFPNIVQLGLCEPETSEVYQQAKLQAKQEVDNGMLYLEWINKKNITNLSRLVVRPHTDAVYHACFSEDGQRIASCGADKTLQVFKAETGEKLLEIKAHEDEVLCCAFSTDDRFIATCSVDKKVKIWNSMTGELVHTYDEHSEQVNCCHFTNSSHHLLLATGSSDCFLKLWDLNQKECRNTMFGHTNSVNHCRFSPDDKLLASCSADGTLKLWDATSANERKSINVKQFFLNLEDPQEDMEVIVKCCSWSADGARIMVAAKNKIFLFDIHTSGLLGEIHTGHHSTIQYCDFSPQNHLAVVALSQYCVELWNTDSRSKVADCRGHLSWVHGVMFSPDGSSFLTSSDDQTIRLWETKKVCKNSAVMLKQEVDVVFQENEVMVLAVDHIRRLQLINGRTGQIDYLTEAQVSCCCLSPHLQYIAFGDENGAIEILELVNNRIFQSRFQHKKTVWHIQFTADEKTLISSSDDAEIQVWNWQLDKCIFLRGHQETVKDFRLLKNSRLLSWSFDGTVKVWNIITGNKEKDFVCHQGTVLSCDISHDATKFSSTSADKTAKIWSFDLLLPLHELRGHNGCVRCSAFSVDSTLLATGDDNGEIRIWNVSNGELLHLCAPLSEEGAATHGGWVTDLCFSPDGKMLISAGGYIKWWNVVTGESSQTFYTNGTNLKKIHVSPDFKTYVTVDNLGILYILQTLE
Sequence of Metabotropic glutamate receptor 3 (P31422 whole entry): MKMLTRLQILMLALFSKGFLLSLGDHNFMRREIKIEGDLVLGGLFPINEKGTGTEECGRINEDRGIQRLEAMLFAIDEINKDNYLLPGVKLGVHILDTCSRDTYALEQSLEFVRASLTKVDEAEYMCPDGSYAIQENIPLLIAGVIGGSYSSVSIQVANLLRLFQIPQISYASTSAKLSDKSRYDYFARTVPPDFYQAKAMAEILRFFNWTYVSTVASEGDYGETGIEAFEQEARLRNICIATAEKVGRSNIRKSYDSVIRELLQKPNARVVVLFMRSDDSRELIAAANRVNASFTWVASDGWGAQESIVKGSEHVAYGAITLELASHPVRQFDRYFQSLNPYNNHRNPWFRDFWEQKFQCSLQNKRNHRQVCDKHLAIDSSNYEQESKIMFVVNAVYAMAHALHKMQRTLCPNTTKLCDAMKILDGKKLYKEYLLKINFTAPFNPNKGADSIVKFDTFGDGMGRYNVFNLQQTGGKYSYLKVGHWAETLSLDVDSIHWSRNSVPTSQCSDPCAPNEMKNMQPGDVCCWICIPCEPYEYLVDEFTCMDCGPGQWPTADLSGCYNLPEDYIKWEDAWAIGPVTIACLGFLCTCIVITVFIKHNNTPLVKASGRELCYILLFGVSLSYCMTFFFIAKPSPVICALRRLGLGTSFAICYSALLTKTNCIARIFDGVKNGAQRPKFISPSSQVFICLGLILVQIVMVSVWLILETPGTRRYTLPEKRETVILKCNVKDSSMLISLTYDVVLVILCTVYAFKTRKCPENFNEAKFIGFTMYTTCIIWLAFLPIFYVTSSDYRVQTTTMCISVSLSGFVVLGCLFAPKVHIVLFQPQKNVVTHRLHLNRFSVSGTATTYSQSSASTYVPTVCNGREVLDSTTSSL
Sequence of Paired box protein Pax-8 (Q06710 whole entry): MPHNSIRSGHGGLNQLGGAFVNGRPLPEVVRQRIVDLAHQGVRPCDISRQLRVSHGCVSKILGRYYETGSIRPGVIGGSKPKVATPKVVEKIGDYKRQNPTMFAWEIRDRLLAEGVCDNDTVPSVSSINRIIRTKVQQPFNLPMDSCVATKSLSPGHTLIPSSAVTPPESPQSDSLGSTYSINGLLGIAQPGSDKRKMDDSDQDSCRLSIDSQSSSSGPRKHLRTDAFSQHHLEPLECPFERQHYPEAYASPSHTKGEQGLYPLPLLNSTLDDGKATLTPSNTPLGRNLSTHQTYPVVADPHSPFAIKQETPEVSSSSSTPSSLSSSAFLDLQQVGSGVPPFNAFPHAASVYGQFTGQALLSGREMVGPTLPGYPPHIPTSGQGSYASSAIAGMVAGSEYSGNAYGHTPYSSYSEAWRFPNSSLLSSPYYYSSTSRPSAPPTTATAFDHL
Sequence of DNA dC->dU-editing enzyme APOBEC-3G (Q9HC16 whole entry): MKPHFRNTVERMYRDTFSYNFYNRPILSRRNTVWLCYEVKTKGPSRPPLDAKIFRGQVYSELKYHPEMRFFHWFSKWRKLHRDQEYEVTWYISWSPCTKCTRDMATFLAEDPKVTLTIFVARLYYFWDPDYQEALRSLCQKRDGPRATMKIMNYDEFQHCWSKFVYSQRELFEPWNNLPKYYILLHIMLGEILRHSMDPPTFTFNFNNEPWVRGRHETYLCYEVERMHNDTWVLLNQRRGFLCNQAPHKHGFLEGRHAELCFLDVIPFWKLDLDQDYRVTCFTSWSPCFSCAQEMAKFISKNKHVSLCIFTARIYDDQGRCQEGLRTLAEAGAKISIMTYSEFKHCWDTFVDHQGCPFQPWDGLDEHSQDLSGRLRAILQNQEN
Sequence of DNA dC->dU-editing enzyme APOBEC-3A (P31941 whole entry): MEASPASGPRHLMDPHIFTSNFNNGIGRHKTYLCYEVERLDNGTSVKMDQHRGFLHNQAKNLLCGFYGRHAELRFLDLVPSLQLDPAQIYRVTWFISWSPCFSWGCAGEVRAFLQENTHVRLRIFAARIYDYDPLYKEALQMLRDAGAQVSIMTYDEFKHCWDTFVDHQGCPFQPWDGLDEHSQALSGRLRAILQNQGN
Sequence of Induced myeloid leukemia cell differentiation protein Mcl-1 (Q07820 whole entry): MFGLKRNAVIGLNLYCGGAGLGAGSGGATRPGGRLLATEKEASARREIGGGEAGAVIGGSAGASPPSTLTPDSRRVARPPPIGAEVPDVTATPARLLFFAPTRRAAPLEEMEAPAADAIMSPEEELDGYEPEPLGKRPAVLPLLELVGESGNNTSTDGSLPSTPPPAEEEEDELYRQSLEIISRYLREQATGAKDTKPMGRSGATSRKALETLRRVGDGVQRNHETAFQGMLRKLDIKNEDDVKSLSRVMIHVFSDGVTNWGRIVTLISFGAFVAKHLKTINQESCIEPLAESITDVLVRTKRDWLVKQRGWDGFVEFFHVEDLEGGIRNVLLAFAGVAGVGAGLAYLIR
Sequence of Potassium channel subfamily K member 9 (Q9NPC2 whole entry): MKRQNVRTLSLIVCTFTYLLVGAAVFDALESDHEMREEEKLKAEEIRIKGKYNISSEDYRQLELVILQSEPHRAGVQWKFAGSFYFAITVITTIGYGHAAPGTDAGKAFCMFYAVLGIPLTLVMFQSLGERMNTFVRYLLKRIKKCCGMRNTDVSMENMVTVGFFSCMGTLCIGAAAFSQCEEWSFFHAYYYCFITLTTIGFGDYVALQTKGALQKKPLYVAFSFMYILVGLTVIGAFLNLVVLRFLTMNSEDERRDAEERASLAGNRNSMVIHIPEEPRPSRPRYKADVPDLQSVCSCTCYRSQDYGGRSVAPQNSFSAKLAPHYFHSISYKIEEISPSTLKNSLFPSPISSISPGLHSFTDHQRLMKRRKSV

Structure (SMILES): O=C(CSc1cnn[nH]1)Nc1cccc(C(=O)O)c1
- IC50 [1]: 15.3 µM (active)
- AC50 [2]: 8 µM (active)
- IC50 [3]: > 100 µM (inactive)

Structure (SMILES): CN1CCN(c2ccc(Cl)cc2NC(=O)c2ccc(S(=O)(=O)N3CCCCCC3)cc2)CC1
- AC50 [4]: 5.58 µM (active)
- IC50 [5]: 3.55 µM (active)

Structure (SMILES): CCc1ccc(NC2=CC(=O)C(=O)c3ccccc32)cc1
- AC50 [6]: 6.77 µM (active)
- IC50 [7]: 3.54 µM (active)
- AC50 [8]: 3.59 µM (active)

Structure (SMILES): CNc1c(C(=O)O)ccc2c1C(=O)c1ccccc1C2=O
- IC50 [9]: 18.5 µM (active)

Structure (SMILES): COc1ccccc1N=C(S)NNC(=O)c1nn(C)c(C)c1Br
- IC50 [10]: > 100 µM (inactive)
- IC50 [11]: > 122 µM (inactive)

Structure (SMILES): Cc1cc(C)n2c(Nc3c(C)cccc3C)c(CCc3ccccc3)nc2n1
- AC50 (Vero): 33.3 µM (active)

Structure (SMILES): C[C@@H]1CCCCO[C@H](CN(C)Cc2ccccc2)[C@H](C)CN([C@@H](C)CO)C(=O)c2cc(NC(=O)Nc3ccc(C(F)(F)F)cc3)ccc2O1
- AC50 [12]: 45.7 µM (active)
- AC50 (Paired box protein Pax-8): 9.11 µM (active)
- AC50 [13]: 42.1 µM (active)

Structure (SMILES): COc1ccc(C#Cc2ccc(C(=O)N3CCC[C@@H](O)C3)c(F)c2)cc1
- IC50 [14]: 0.509 µM

Structure (SMILES): O=C(Nc1cccc(NC(=O)c2ccccn2)c1)c1ccccc1
- IC50 [15]: 5.37 µM (active)

Structure (SMILES): N#C[C@H]1[C@@H](c2ccccc2C2=CCCCC2)[C@H](CO)N1S(=O)(=O)c1ccccc1
- AC50 [16]: > 47 µM (inactive)
